Key:
[1] = tested on: PC3 human prostate cells stably expressing GFP-LC3; test: GFP-LC3 puncta quantification in PC3 cells; assay type: cell-based; conditions: PC3 GFP-LC3, control siRNAs, 1 μM mTOR inhibitor for 4 hr
Experimental: At 48 hr after RNAi transfection, the cells were treated with 1 μM of the catalytic mTOR inhibitors AZD8055 or INK128 for 4 hr and assessed for the presence of GFP-LC3 puncta. The average number of GFPLC3 puncta and SD for each siRNA and drug treatment are shown. SRC, c-Src; c-Src kinase, CSK.
To test the ability of compound 14 to block autophagy and cell survival, initial studies were performed in A549 lung cancer cells, which are highly sensitive to mTOR inhibition. […] Next, we genetically assessed the requirement for ULK1 versus other kinases inhibited by compound 14 to induce autophagy after pharmacological mTOR inhibition. A robust high-throughput microscopy method for quantifying GFP-LC3 puncta was established using a PC3 prostate-cancer cell line stably expressing a GFP-LC3 construct. Using this assay, we performed a focused RNAi analysis of the top 20 kinases identified in the DiscovRx screen as best binding to compound 14. […] Strikingly, of the 18 kinases tested, only one kinase siRNA, ULK1, nearly fully abolished the LC3 puncta induced by the mTOR inhibitors (FIG. 9D).

ULK1 = ULK1 (Homo sapiens (Human), UniProt O75385); test: ULK1 inhibition assay (Table 1); assay type: biochemical; conditions: * = tested as a mixture of regioisomers
Sequence of ULK1 (O75385 whole entry, species assumed): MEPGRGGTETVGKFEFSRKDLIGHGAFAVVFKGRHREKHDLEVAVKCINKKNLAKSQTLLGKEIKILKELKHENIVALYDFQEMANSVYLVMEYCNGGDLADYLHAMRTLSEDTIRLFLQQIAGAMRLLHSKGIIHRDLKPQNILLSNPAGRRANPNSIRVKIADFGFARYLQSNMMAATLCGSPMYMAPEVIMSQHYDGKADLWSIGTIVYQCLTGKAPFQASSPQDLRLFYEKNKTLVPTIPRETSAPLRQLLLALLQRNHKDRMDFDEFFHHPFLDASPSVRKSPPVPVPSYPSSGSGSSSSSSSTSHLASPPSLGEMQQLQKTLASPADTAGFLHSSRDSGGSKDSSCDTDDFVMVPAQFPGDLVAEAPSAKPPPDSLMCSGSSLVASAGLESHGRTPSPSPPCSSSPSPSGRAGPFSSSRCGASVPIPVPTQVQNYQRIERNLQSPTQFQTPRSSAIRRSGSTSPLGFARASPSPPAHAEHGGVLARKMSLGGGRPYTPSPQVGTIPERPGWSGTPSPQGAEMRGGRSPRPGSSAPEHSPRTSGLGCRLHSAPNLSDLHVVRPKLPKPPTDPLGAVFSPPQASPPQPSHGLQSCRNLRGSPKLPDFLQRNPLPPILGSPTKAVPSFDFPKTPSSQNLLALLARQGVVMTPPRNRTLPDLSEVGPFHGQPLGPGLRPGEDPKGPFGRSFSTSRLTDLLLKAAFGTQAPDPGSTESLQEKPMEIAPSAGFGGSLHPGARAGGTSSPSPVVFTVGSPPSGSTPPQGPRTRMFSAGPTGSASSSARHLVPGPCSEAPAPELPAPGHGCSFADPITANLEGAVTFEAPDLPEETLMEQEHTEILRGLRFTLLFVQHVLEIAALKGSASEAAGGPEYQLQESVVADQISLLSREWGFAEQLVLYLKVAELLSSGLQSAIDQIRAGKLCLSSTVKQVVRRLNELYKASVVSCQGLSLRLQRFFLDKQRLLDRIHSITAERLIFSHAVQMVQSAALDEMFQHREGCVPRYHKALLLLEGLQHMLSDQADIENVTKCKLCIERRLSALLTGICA

| Molecule | induction in GFP-LC3 puncta formation [1] [fold] | IC50 (ULK1) [nM] |
| --- | --- | --- |
| CC(C)n1nc(-c2ccc3oc(N)nc3c2)c2c(N)ncnc21 [INK128, 3-(2-amino-5-benzoxazolyl)-1-(1-methylethyl)-1H-pyrazolo[3,4-d]pyrimidin-4-amine] | 2 | – |
| CNC(=O)c1ccccc1Oc1nc(Nc2cc(Br)ccc2C)ncc1Br [compound 112, 2-((5-bromo-2-((5-bromo-2-methylphenyl)amino)pyrimidin-4-yl)oxy)-N-methylbenzamide] | – | > 2000 |
| CNC(=O)c1ccccc1Oc1nc(Nc2cccc(F)c2F)ncc1C(F)(F)F [compound 113, 2-((2-((2,3-difluorophenyl)amino)-5-(trifluoromethyl)pyrimidin-4-yl)oxy)-N-methylbenzamide] | – | > 2000 |
| Clc1cnc(Nc2ccccc2)nc1Nc1ccccc1 [compound 114, 5-chloro-N^2,N^4-diphenylpyrimidine-2,4-diamine] | – | > 2000 |
| CNC(=O)c1ccccc1Sc1nc(Nc2cc(OC)ccc2C)ncc1C(F)(F)F [compound 117, 2-((2-((5-methoxy-2-methylphenyl)amino)-5-(trifluoromethyl)pyrimidin-4-yl)thio)-N-methylbenzamide] | – | > 2000 |
| COc1cccc(Nc2nc(Nc3ccc4c(c3)CCC(=O)N4)ncc2C(F)(F)F)c1 [compound 119, 6-((4-((3-methoxyphenyl)amino)-5-(trifluoromethyl)pyrimidin-2-yl)amino)-3,4-dihydroquinolin-2(1H)-one] | – | < 200 |
| O=C1CCc2cc(Nc3ncc(C(F)(F)F)c(Nc4cccc(OCc5ccccc5)c4)n3)ccc2N1 [compound 121, 6-((4-((3-(benzyloxy)phenyl)amino)-5-(trifluoromethyl)pyrimidin-2-yl)amino)-3,4-dihydroquinolin-2(1H)-one] | – | 200 to 2000 |
| CNC(=O)c1cccc(Oc2nc(Nc3ccc4c(c3)CCC(=O)N4)ncc2C(F)(F)F)c1 [compound 122, N-methyl-3-((2-((2-oxo-1,2,3,4-tetrahydroquinolin-6-yl)amino)-5-(trifluoromethyl)pyrimidin-4-yl)oxy)benzamide] | – | 200 to 2000 |
| Cc1ccc(Nc2nc(Nc3ccc4c(c3)CCC(=O)N4)ncc2C(F)(F)F)cc1C [compound 125, 6-((4-((3,4-dimethylphenyl)amino)-5-(trifluoromethyl)pyrimidin-2-yl)amino)-3,4-dihydroquinolin-2(1H)-one] | – | < 200 |
| CNC(=O)c1cccc(Nc2nc(Nc3ccc4c(c3)CCC(=O)N4)ncc2C(F)(F)F)c1 [compound 128, N-methyl-3-((2-((2-oxo-1,2,3,4-tetrahydroquinolin-6-yl)amino)-5-(trifluoromethyl)pyrimidin-4-yl)amino)benzamide] | – | < 200 |
| O=C1CCc2cc(Nc3ncc(C(F)(F)F)c(Nc4ccc5c(c4)CCC5)n3)ccc2N1 [compound 129, 6-((4-((2,3-dihydro-1H-inden-5-yl)amino)-5-(trifluoromethyl)pyrimidin-2-yl)amino)-3,4-dihydroquinolin-2(1H)-one] | – | < 200 |
| CC(=O)Nc1ccc(Nc2nc(Nc3ccc4c(c3)CCC(=O)N4)ncc2C(F)(F)F)cc1 [compound 132, N-(4-((2-((2-oxo-1,2,3,4-tetrahydroquinolin-6-yl)amino)-5-(trifluoromethyl)pyrimidin-4-yl)amino)phenyl)acetamide] | – | < 200 |
| COc1cccc(Nc2nc(Nc3ccc4c(c3)OCCO4)ncc2C(F)(F)F)c1 [compound 133, N^2-(2,3-dihydrobenzo[b][1,4]dioxin-6-yl)-N^4-(3-methoxyphenyl)-5-(trifluoromethyl)pyrimidine-2,4-diamine] | – | < 200 |
| O=C1CCc2cc(Nc3ncc(Cl)c(Nc4ccc5c(c4)CCC(=O)N5)n3)ccc2N1 [compound 134, 6,6′-((5-chloropyrimidine-2,4-diyl)bis(azanediyl))bis(3,4-dihydroquinolin-2(1H)-one)] | – | < 200 |
| COc1cnc(Nc2ccc3c(c2)CCC(=O)N3)nc1Nc1ccc2c(c1)CCC(=O)N2 [compound 135, 6,6′-((5-methoxypyrimidine-2,4-diyl)bis(azanediyl))bis(3,4-dihydroquinolin-2(1H)-one)] | – | > 2000 |
| COc1cccc(Nc2nc(Nc3ccc4c(c3)CCC(=O)N4)ncc2Br)c1 [compound 142, 6-((5-bromo-4-((3-methoxyphenyl)amino)pyrimidin-2-yl)amino)-3,4-dihydroquinolin-2(1H)-one] | – | < 200 |
| CS(=O)(=O)c1cccc(CNc2nc(Nc3ccc4[nH]ccc4c3)ncc2Br)c1 [compound 153, 5-bromo-N^2-(1H-indol-5-yl)-N^4-(3-(methylsulfonyl)benzyl) pyrimidine-2,4-diamine] | – | > 2000 |
| Brc1cnc(Nc2ccc3[nH]ccc3c2)nc1Nc1ccccn1 [compound 154, 5-bromo-N^2-(1H-indol-5-yl)-N^4-(pyridin-2-yl)pyrimidine-2,4-diamine] | – | < 200 |
| O=C1CCc2cc(Nc3ncc(Br)c(Nc4ccccn4)n3)ccc2N1 [compound 155, 6-((5-bromo-4-(pyridin-2-ylamino)pyrimidin-2-yl)amino)-3,4-dihydroquinolin-2(1H)-one] | – | < 200 |
| COc1ccc(Nc2nc(Nc3ccc4c(c3)CCC(=O)N4)ncc2Br)cn1 [compound 156, 6-((5-bromo-4-((6-methoxypyridin-3-yl)amino)pyrimidin-2-yl)amino)-3,4-dihydroquinolin-2(1H)-one] | – | < 200 |
| O=C1CCc2cc(Nc3ncc(Br)c(NC4CC4)n3)ccc2N1 [compound 159, 6-((5-bromo-4-(cyclopropylamino)pyrimidin-2-yl)amino)-3,4-dihydroquinolin-2(1H)-one] | – | < 200 |
| FC(F)(F)c1cnc(NC2CC2)nc1NC1CC1 [compound 169, N^2,N^4-dicyclopropyl-5-(trifluoromethyl)pyrimidine-2,4-diamine] | – | > 2000 |
| CNC(=O)c1ccccc1Oc1nc(Nc2cc(OC)ccc2C)ncc1Br [compound 170, 2-((5-bromo-2-((5-methoxy-2-methylphenyl)amino)pyrimidin-4-yl)oxy)-N-methylbenzamide] | – | > 2000 |
| COc1nc(Nc2cccc(C(F)(F)F)c2F)ncc1Br [compound 172, 5-bromo-N-(2-fluoro-3-(trifluoromethyl)phenyl)-4-methoxy pyrimidin-2-amine] | – | 200 to 2000 |
| CCCCOc1nc(Nc2cc(OC)c(OC)c(OC)c2)ncc1Br [compound 173, 5-bromo-4-butoxy-N-(3,4,5-trimethoxyphenyl)pyrimidin-2-amine] | – | < 200 |
| Brc1cnc(Nc2cnc3[nH]ccc3c2)nc1NC1CC1 [compound 174, 5-bromo-N4-cyclopropyl-N2-(1H-pyrrolo[2,3-b]pyridin-5-yl)pyrimidine-2,4-diamine] | – | < 200 |
| O=C1CCc2cc(Nc3ncc(C(F)(F)F)c(OC4CCC4)n3)ccc2N1 [compound 175, 6-((4-cyclobutoxy-5-(trifluoromethyl)pyrimidin-2-yl)amino)-3,4-dihydroquinolin-2(1H)-one] | – | < 200 |
| FC(F)(F)c1cnc(Nc2cnc3[nH]ccc3c2)nc1Nc1ccc2c(c1)OCO2 [compound 177, N4-(benzo[d][1,3]dioxol-5-yl)-N2-(1H-pyrrolo[2,3-b]pyridin-5-yl)-5-(trifluoromethyl)pyrimidine-2,4-diamine] | – | < 200 |
| COCCNc1nc(Nc2cnc3[nH]ccc3c2)ncc1C(F)(F)F [compound 179, N4-(2-methoxyethyl)-N2-(1H-pyrrolo[2,3-b]pyridin-5-yl)-5-(trifluoromethyl)pyrimidine-2,4-diamine] | – | 200 to 2000 |
| N2-(2-methoxy-5-methylphenyl)-N4-(3-(methylsulfonyl) benzyl)-5-(trifluoromethyl)pyrimidine-2,4-diamine [compound 50] | – | > 2000 |
